Data: patent US20130071439A1, “METHODS AND COMPOSITIONS FOR TREATING BIOFILMS” (PRESIDENT AND FELLOWS OF HARVARD COLLEGE, priority 2010, published 2013)

Columns and labels:
TasA fibers = assay: Cell association of TasA fibers by electron microscopy (immunogold); assay type: cell-based, Bacillus subtilis; conditions: 0.1 mM, 12 hours, Δeps cells
Procedure: Transmission electron microscopy and immunolabeling. Samples were diluted with distilled water and adsorbed onto a carbon or formvar/carbon coated grid. The grid surface was made hydrophilic prior to use with glow discharge in a vacuum evaporator. Once the specimen was adsorbed onto the film surface, the excess sample was blotted off on a filter paper (Whatman #1) and the grid was floated on 5 μl of stain solution (1-2% aqueous uranyl acetate) for a few minutes and then blotted off. The samples were dried and examined in a Tecnai™ G^2 Spirit BioTWIN microscope at an accelerating voltage of 80 KV. Images were taken with an AMT 2k CCD camera. […]
The cells were grown to stationary phase with shaking in biofilm-inducing medium in the presence or absence of D-tyrosine (6 μM). […] When the cells were washed by centrifugation, resuspended and then examined by fluorescence microscopy, untreated cells (which were often in clumps) were seen to be intensely decorated with TasA-mCherry. […] The localization of unmodified TasA protein was also analyzed by transmission electron microscopy using gold-labeled anti-TasA antibodies. […]

S. aureus (strain SCO1) = assay: Biofilm formation on polystyrene, crystal violet staining; assay type: cell-based, Staphylococcus aureus; conditions: 50 μM, 24 hours at 37° C., TSB
Procedure: Crystal violet staining was done as described previously (O'Toole et al., Mol. Microbiol. 30:295 (1998)) except that the cells were grown in […]. Wells were stained with 500 μl of 1.0% Crystal-violet dye, rinsed twice with 2 ml double-distilled water and thoroughly dried.
The effect of D-amino acids on biofilm formation by other bacteria was examined. The pathogenic bacterium Staphylococcus aureus forms biofilms on plastic surfaces (Otto, Curr. Top. Microbiol. Immunol. 322:207 (2008)), which can be detected by washing away unbound cells and staining the bound cells with crystal violet. […] Additionally added to the wells were no amino acids (untreated), D-tyrosine (50 μM) or the D-amino acid mixture ([…] each). Cells bound to the polystyrene were visualized by washing away unbound cells and then staining with crystal violet.
For experiments reported in Table 1, the organism/strain was S.a. Harvard SCO1, the culture medium was TSB and the cell inoculation was at 2×10^9 cfu. For experiments reported in Table 2, the organism/strain was […], the culture medium was M63 and the cell inoculation was at 1.5×10^9 cfu. Biofilm was visualized using the crystal violet method. The data is shown below in Tables 1 and 2:
For experiments reported in Tables 3 and 4, the organism/strain was S.a. Harvard SCO1, the culture medium was TSB and the cell inoculation was at 2×10^9 cfu. […]

Question: Which results are given for `N[C@H](Cc1ccc(O)cc1)C(=O)O` [D-Tyr, D-tyrosine]?
Answer: cell association of TasA fibers (TasA fibers): largely undecorated with TasA fibers; effect on biofilm formation (S. aureus (strain SCO1)): highly effective in preventing biofilm formation
